Results on 1 compound are retold here after ChEMBL document CHEMBL6177968, “Development of sulfamoylbenzamide-based capsid assembly modulators for hepatitis B virus capsid assembly” (Eur J Med Chem, 2025).

The nature of series [1]: AUClast in male mouse at 20 mg/kg, po. The format is ADME, organism-based. Conditions: in vivo; call rule not given here.
Series [2] concerns Hepatitis B virus. Kind of series: Antiviral activity against HBV infected in human HepG2 cells expressing NTCP assessed as intracellular HBc level at 1 uM incubated for 6 days by Western blot analysis (reference value: 100 %). It is filed as functional. Conditions: time 6 day.
The subject of series [3] is Hepatitis B virus. Kind of series: Antiviral activity against HBV in human HepG2.2.15 cells assessed as reduction in viral replication incubated for 5 days by real-time PCR analysis. The format is functional, organism-based. Conditions: HepG2.2.15, 120 h.
The subject of series [4] is HepG2. Nature of the series: Effect on viral dslDNA level in human HepG2 cells expressing NTCP infected with HBV at 1 uM incubated for 6 days by Southern blot analysis. It is filed as functional, cell-based. Conditions: time 6.0 day.
Series [5] in a line: AUClast in male mouse at 20 mg/kg, iv. The format is ADME, organism-based. Conditions: in vivo.
For series [6], the system named is Hepatitis B virus. Nature of the series: Antiviral activity against HBV infected in human HepG2 cells expressing NTCP assessed as decrease in intracellular HBc level at 1 uM incubated for 6 days by indirect immunofluorescence staining based analysis. The format is functional, organism-based. Conditions: time 6.0 day.
A short description of series [7]: Tmax in male mouse at 20 mg/kg, po. The format is ADME, organism-based. Conditions: in vivo.
Series [8] is described as follows: Selectivity index, ratio of CC50 for cytotoxicity in human HepaRG cells assessed as reduction in cell viability to EC50 for antiviral activity against HBV in human HepaRG cells assessed as reduction in viral replication. The format is toxicity, cell-based. Conditions: read-out: Ratio CC50/EC50.
In series [9] the test system is Hepatitis B virus. Kind of series: Antiviral activity against HBV infected in human HepG2 cells expressing NTCP assessed as fold increase in intracellular capsid level at 1 uM incubated for 6 days by Western blot analysis relative to control. Conditions: time 6 day. It is filed as functional.
Series [10] concerns the target Voltage-gated inwardly rectifying potassium channel KCNH2 (Homo sapiens, UniProt Q12809). Kind of series: Inhibition of human ERG. The format is toxicity.
The subject of series [11] is Hepatitis B virus. Nature of the series: Antiviral activity against HBV infected in human HepG2 cells expressing NTCP assessed as capsid level at 1 uM incubated for 6 days by Western blot analysis (reference value: 100 %). Conditions: time 6 day. The format is functional.
A short description of series [12]: AUC (0 to infinity) in male mouse at 5 mg/kg, po. Conditions: in vivo. It is filed as ADME, organism-based.
Series [13] relates to HepG2. Kind of series: Effect on viral ssDNA level in human HepG2 cells expressing NTCP cells infected with HBV at 1 uM incubated for 6 days by Southern blot analysis. It is filed as functional, cell-based. Conditions: time 6.0 day.
Series [14] can be described thus: Stability in human plasma assessed as compound remaining incubated for 4 hrs. Conditions: read-out: Stability. It is filed as ADME, cell-free.

Voltage-gated inwardly rectifying potassium channel KCNH2, sequence (Q12809 whole entry): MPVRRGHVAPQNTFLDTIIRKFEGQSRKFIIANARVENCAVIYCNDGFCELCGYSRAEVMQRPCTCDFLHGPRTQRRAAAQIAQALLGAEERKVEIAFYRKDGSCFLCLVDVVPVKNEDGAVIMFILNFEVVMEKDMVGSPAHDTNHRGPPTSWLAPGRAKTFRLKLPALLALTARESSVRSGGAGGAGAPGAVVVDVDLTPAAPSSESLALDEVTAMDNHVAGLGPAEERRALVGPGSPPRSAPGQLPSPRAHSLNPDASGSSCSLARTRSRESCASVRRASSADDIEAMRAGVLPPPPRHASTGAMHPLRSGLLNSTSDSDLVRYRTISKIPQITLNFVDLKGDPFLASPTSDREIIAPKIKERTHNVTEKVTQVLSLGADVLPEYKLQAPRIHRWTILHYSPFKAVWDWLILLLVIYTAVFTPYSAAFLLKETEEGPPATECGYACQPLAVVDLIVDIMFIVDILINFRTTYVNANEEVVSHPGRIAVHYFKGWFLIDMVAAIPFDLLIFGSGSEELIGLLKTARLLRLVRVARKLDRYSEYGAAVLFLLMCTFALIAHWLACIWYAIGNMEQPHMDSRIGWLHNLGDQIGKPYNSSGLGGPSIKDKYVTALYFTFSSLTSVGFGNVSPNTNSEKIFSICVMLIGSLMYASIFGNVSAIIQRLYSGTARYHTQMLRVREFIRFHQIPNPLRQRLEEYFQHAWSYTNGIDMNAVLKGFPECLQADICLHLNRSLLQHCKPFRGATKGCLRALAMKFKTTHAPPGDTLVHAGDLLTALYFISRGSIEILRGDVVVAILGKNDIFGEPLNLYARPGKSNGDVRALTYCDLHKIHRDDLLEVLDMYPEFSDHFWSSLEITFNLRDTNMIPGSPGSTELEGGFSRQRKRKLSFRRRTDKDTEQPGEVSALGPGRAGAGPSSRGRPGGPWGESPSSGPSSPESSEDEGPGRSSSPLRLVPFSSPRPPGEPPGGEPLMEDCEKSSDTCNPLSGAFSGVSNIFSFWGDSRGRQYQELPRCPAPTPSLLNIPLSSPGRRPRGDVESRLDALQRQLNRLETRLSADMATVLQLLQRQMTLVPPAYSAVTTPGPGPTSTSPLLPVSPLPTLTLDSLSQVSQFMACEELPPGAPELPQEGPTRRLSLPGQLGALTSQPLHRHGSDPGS

Consider `Nc1cc(F)c(S(=O)(=O)NC2COC2)cc1C(=O)Nc1ccc(F)c(C(F)F)c1`, for which the AUC(0-t) was 270 ng·h/mL in [1] and 4610 ng·h/mL in [5]. The Activity in the series on Hepatitis B virus [2] was 113%; in the series with HepG2 [4] it was “No effect”; with Hepatitis B virus [6], “Active; Compound Modestly Decreased Hbc Level”; in the series with Hepatitis B virus [11] it was 205%; in the series on HepG2 [13], “No effect”. Further, the EC50 in the series on Hepatitis B virus [3] was determined as 50 nM. In series [7], the Tmax was determined as 25.2 min. Moreover, in [8], the selectivity ratio is > 100. For the same compound, in the series with Hepatitis B virus [9], the “fold change (FC)” value was ~2. Besides, in series [10], the IC50 was > 10000 nM. In addition, the total exposure AUC(0-inf) in series [12] turned out to be 570 ng·h/mL. Moreover, the remaining at 4 h in series [14] amounted to 94%.
